Test results published in ChEMBL document CHEMBL3120136 (J Med Chem, 2014).

How the values were obtained:
Hepatitis C virus = assay: Antiviral activity against Hepatitis C virus infected in human HuH7 cells assessed as inhibition of HCV subgenomic replicon replication after 72 hrs by ELISA; type: functional, organism-based, Hepacivirus hominis, Huh-7; settings: Hepatitis C virus, Huh-7, 72 h; read-out: EC50
[1] = Inhibition of Hepatitis C virus full-length NS3/4A protease assessed as quenched-fluorogenic RET-S1 substrate cleavage incubated for 10 mins prior to substrate addition by FRET analysis; design: species or system Hepacivirus hominis

Structure (SMILES) | EC50 (Hepatitis C virus) [nM] | IC50 [1] [nM]
CC(C)(C)OC(=O)N[C@H]1CCCCC/C=C\[C@@H]2C[C@@]2(C(=O)NS(=O)(=O)C2(C)CC2)NC(=O)[C@@H]2C[C@@H](OC(=O)N3Cc4ccccc4C3)CN2C1=O | 3.1 | 0.5
CC(C)(C)OC(=O)N[C@H]1CCCCC/C=C\[C@@H]2C[C@@]2(C(=O)NS(=O)(=O)Nc2ccc(Cl)cc2)NC(=O)[C@@H]2C[C@@H](OC(=O)N3Cc4ccccc4C3)CN2C1=O | 97 | 7.9
CC(C)(C)OC(=O)N[C@H]1CCCCC/C=C\[C@@H]2C[C@@]2(C(=O)NS(=O)(=O)N2CCCC2)NC(=O)[C@@H]2C[C@@H](OC(=O)N3Cc4ccccc4C3)CN2C1=O | 11.8 | 2.6
COc1ccc(S(=O)(=O)NC(=O)[C@@]23C[C@H]2/C=C\CCCCC[C@H](NC(=O)OC(C)(C)C)C(=O)N2C[C@H](OC(=O)N4Cc5ccccc5C4)C[C@H]2C(=O)N3)cc1 | 10 | 4.1
CO[C@@H]1C[C@H]2C(=O)N[C@]3(C(=O)NS(=O)(=O)C4CC4)C[C@H]3/C=C\CCCCC[C@H](NC(=O)OC(C)(C)C)C(=O)N2C1 | 6300 | 220
O=C(N[C@H]1CCCCC/C=C\[C@@H]2C[C@@]2(C(=O)NS(=O)(=O)C2CC2)NC(=O)[C@@H]2C[C@@H](OC(=O)N3Cc4ccccc4C3)CN2C1=O)O[C@H]1CCOC1 | 217 | 2.2
CC(C)(C)OC(=O)N[C@H]1CCCCC/C=C\[C@@H]2C[C@@]2(C(=O)NS(=O)(=O)C(F)(F)F)NC(=O)[C@@H]2C[C@@H](OC(=O)N3Cc4ccccc4C3)CN2C1=O | 166 | 4.8
CC(C)(C)OC(=O)N[C@H]1CCCCC/C=C\[C@@H]2C[C@@]2(C(=O)NS(=O)(=O)C2CC2)NC(=O)[C@@H]2C[C@@H](NS(=O)(=O)c3cccc4ccccc34)CN2C1=O | > 10000 | 470
O=C(NC1CCCC1)N[C@H]1CCCCC/C=C\[C@@H]2C[C@@]2(C(=O)NS(=O)(=O)C2CC2)NC(=O)[C@@H]2C[C@@H](OC(=O)N3Cc4ccccc4C3)CN2C1=O | 26 | 0.7
CC(C)(C)OC(=O)N[C@H]1CCCCC/C=C\[C@@H]2C[C@@]2(C(=O)NS(=O)(=O)c2ccc(Cl)cc2)NC(=O)[C@@H]2C[C@@H](OC(=O)N3Cc4ccccc4C3)CN2C1=O | 58 | 3
CC(C)(C)OC(=O)N[C@H]1CCCCC/C=C\[C@@H]2C[C@@]2(C(=O)NS(=O)(=O)C2CC2)NC(=O)[C@@H]2C[C@@H](OC(=O)N3Cc4cc(Cl)c(Cl)cc4C3)CN2C1=O | 24 | 1
CC(C)(C)OC(=O)N[C@H]1CCCCC/C=C\[C@@H]2C[C@@]2(C(=O)NS(=O)(=O)Nc2ccccc2)NC(=O)[C@@H]2C[C@@H](OC(=O)N3Cc4ccccc4C3)CN2C1=O | 30 | 2.2
CC(C)(C)OC(=O)N[C@H]1CCCCC/C=C\[C@@H]2C[C@@]2(C(=O)NS(=O)(=O)c2cc(F)ccc2F)NC(=O)[C@@H]2C[C@@H](OC(=O)N3Cc4ccccc4C3)CN2C1=O | 285 | 0.7
CC(C)N(C(C)C)S(=O)(=O)NC(=O)[C@@]12C[C@H]1/C=C\CCCCC[C@H](NC(=O)OC(C)(C)C)C(=O)N1C[C@H](OC(=O)N3Cc4ccccc4C3)C[C@H]1C(=O)N2 | 139 | 70
N[C@H]1CCCCC/C=C\[C@@H]2C[C@@]2(C(=O)NS(=O)(=O)C2CC2)NC(=O)[C@@H]2C[C@@H](OC(=O)N3Cc4cccc(F)c4C3)CN2C1=O | 3050 | 20
CC(C)(C)OC(=O)N[C@H]1CCCCC/C=C\[C@@H]2C[C@@]2(C(=O)NS(=O)(=O)C2CC2)NC(=O)[C@@H]2C[C@@H](NC(=O)N3Cc4ccccc4C3)CN2C1=O | 47 | 2.3
CC(C)(C)OC(=O)N[C@H]1CCCCC/C=C\[C@@H]2C[C@@]2(C(=O)NS(=O)(=O)c2ccccc2)NC(=O)[C@@H]2C[C@@H](OC(=O)N3Cc4ccccc4C3)CN2C1=O | 11 | 3.5
CC(C)(C)OC(=O)N[C@H]1CCCCC/C=C\[C@@H]2C[C@@]2(C(=O)NS(=O)(=O)C2CC2)NC(=O)[C@@H]2C[C@@H](NC(=O)N3CCc4ccccc4C3)CN2C1=O | 362 | 2.9
CC(C)(C)OC(=O)N[C@H]1CCCCC/C=C\[C@@H]2C[C@@]2(C(=O)NS(=O)(=O)C2CC2)NC(=O)[C@@H]2C[C@@H](NC(=O)c3cc4ccccc4s3)CN2C1=O | 21 | 1.4
CC(C)(C)OC(=O)N[C@H]1CCCC(F)(F)CCC[C@@H]2C[C@@]2(C(=O)NS(=O)(=O)C2CC2)NC(=O)[C@@H]2C[C@@H](OC(=O)N3Cc4cccc(F)c4C3)CN2C1=O | 46 | 1.3
CC(C)(C)OC(=O)N[C@H]1CCCCC/C=C\[C@@H]2C[C@@]2(C(=O)NS(=O)(=O)c2cccs2)NC(=O)[C@@H]2C[C@@H](OC(=O)N3Cc4ccccc4C3)CN2C1=O | 27 | 2.5
COc1ccc(NS(=O)(=O)NC(=O)[C@@]23C[C@H]2/C=C\CCCCC[C@H](NC(=O)OC(C)(C)C)C(=O)N2C[C@H](OC(=O)N4Cc5ccccc5C4)C[C@H]2C(=O)N3)cc1 | 184 | 11
CC(C)(C)OC(=O)N[C@H]1CCCCC/C=C\[C@@H]2C[C@@]2(C(=O)NS(=O)(=O)c2ccc(C#N)cc2)NC(=O)[C@@H]2C[C@@H](OC(=O)N3Cc4ccccc4C3)CN2C1=O | 125 | 3

Next, values leading:

EC50 (Hepatitis C virus) [nM] | IC50 [1] [nM] | Structure (SMILES)
22.5 | 1.5 | CC(C)(C)OC(=O)N[C@H]1CCCCCC[C@@H]2C[C@@]2(C(=O)NS(=O)(=O)C2CC2)NC(=O)[C@@H]2C[C@@H](OC(=O)N3Cc4cccc(F)c4C3)CN2C1=O
4 | 3 | CC(C)(C)OC(=O)N[C@H]1CCCCC/C=C\[C@@H]2C[C@@]2(C(=O)NS(=O)(=O)C2CC2)NC(=O)[C@@H]2C[C@@H](OC(=O)N3Cc4ccc(F)cc4C3)CN2C1=O
254 | 1 | CC(C)(C)OC(=O)N[C@H]1CCCOCCC[C@@H]2C[C@@]2(C(=O)NS(=O)(=O)C2CC2)NC(=O)[C@@H]2C[C@@H](OC(=O)N3Cc4cccc(F)c4C3)CN2C1=O
7.3 | 1.7 | CC(C)(C)OC(=O)N[C@H]1CCCCC/C=C\[C@@H]2C[C@@]2(C(=O)NS(=O)(=O)C2CC2)NC(=O)[C@@H]2C[C@@H](OC(=O)N3Cc4c(Cl)ccc(Cl)c4C3)CN2C1=O
5.7 | 1 | CC1CN(C(=O)O[C@@H]2C[C@H]3C(=O)N[C@]4(C(=O)NS(=O)(=O)C5CC5)C[C@H]4/C=C\CCCCC[C@H](NC(=O)OC(C)(C)C)C(=O)N3C2)Cc2ccccc21 (some centres not stated)
76.6 | 1.5 | CC(C)(C)OC(=O)N[C@H]1CCCC/C=C\[C@@H]2C[C@@]2(C(=O)NS(=O)(=O)C2CC2)NC(=O)[C@@H]2C[C@@H](OC(=O)N3Cc4cccc(F)c4C3)CN2C1=O
5.8 | 0.7 | CC(C)(C)OC(=O)N[C@H]1CCCCCCC[C@@H]2C[C@@]2(C(=O)NS(=O)(=O)C2CC2)NC(=O)[C@@H]2C[C@@H](OC(=O)N3Cc4cccc(F)c4C3)CN2C1=O
49 | 1.1 | CC(C)(C)OC(=O)N[C@H]1CCCCC/C=C\[C@@H]2C[C@@]2(C(=O)NS(=O)(=O)C2CC2)NC(=O)[C@@H]2C[C@@H](OC(=O)N3Cc4cccc(Br)c4C3)CN2C1=O
12.4 | 1.2 | CC(C)(C)OC(=O)N[C@H]1COCCCCC[C@@H]2C[C@@]2(C(=O)NS(=O)(=O)C2CC2)NC(=O)[C@@H]2C[C@@H](OC(=O)N3Cc4cccc(F)c4C3)CN2C1=O
837 | 7 | CN1CC/C=C\[C@@H]2C[C@@]2(C(=O)NS(=O)(=O)C2CC2)NC(=O)[C@@H]2C[C@@H](OC(=O)N3Cc4cccc(F)c4C3)CN2C(=O)[C@@H](NC(=O)OC(C)(C)C)CC1
12 | 0.7 | CC(C)(C)OC(=O)N[C@H]1CCCCC/C=C\[C@@H]2C[C@@]2(C(=O)NS(=O)(=O)C2CC2)NC(=O)[C@@H]2C[C@@H](OC(=O)N3CCc4c(F)cccc4C3)CN2C1=O
1270 | 10 | CC(C)(C)OC(=O)N[C@H]1CCCCC/C=C\[C@@H]2C[C@@]2(C(=O)O)NC(=O)[C@@H]2C[C@@H](OC(=O)N3Cc4cccc(F)c4C3)CN2C1=O
33 | 1.2 | CC(C)(C)OC(=O)N[C@H]1CCOCC/C=C\[C@@H]2C[C@@]2(C(=O)NS(=O)(=O)C2CC2)NC(=O)[C@@H]2C[C@@H](OC(=O)N3Cc4cccc(F)c4C3)CN2C1=O
